Measurements: US9000162B2, “5,8-difluoro-4-(2-(4-(heteroaryloxy)-phenyl)ethylamino)quinazolines and their use as agrochemicals” (Dow AgroSciences LLC, priority 2008, dated 2015)
≈ marks a conversion by molar mass, not a printed value.

Tests used:
Assay type in all cases: in vivo
[1] = system: Colorado Potato Beetle (Leptinotarsa decemlineata, LPTNDE); experiment: Colorado Potato Beetle larvae on sprayed tomato leaves; details: foliar, 72 h, L2 larvae on sprayed tomato foliage, mortality after three days
Procedure: Formulated test compounds were diluted and sprayed onto leaves of tomato plants. When dry, plant foliage was removed from the plant and placed in 8-well agar trays. Five L2 Colorado potato beetle larvae were placed in each well, and the trays were sealed and incubated at 26° C. Mortality was evaluated after three days.

[2] = system: Pseudoperonospora cubensis (PSPECU); experiment: Cucumber downy mildew foliar protectant test; details: 200 ppm foliar, inoculated one day after treatment, read-out: Activity against fungal diseases PSPECU
Summary of the method: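 Cucumber seedlings, first true leaf 20-80% expanded, were sprayed to wetness with formulated compound and inoculated next day with aqueous sporangia suspension. Severity was converted to percent control versus untreated inoculated plants: ***=80-100%, **=50-79%, *=0-49%.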

[3] = system: Puccinia recondita tritici (PUCCRT); experiment: Leaf rust of wheat foliar protectant test; details: 200 ppm foliar, inoculated one day after treatment, read-out: Activity against fungal diseases PUCCRT
Summary of the method: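 Wheat seedlings (3–8 per pot) were sprayed to wet with formulated compound and inoculated the next day with an aqueous Puccinia recondita tritici spore suspension. Severity was converted to % control versus untreated inoculated plants and rated *** 80–100%, ** 50–79%, * 0–49%.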

[4] = system: Magnaporthe grisea = Pyricularia oryzae (PYRIOR); experiment: whole plant or invertebrate; details: foliar, read-out: Activity against fungal diseases PYRIOR
[5] = system: Septoria tritici (SEPTTR); experiment: Septoria blotch of wheat foliar protectant test; details: Zymoseptoria tritici, read-out: Activity against fungal diseases SEPTTR; for pest or weed control at 200 ppm: 200 ppm foliar, inoculated one day after treatment; for pest or weed control at 25 ppm: foliar, Tested at 25 ppm (footnote b)
Summary of the method: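 Wheat seedlings (3-10 per pot) were sprayed to wet with formulated compound and inoculated next day with Septoria tritici spores. Plants then had 1 day in a dark dew chamber and 3 days in a lighted one before greenhouse incubation. Severity versus untreated inoculated plants gave percent control, scored *** 80-100%, ** 50-79%, * 0-49%.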

SMILES	LC90 [1]	pest or weed control at 200 ppm [2]	pest or weed control at 200 ppm [3]	pest or weed control at 200 ppm [4]	pest or weed control at 200 ppm [5]	pest or weed control at 25 ppm [5]
Fc1cccc2c(NCCc3ccc(Oc4ccc(C(F)(F)F)cn4)cc3)ncnc12 [reference compound]	0.12 µg/mL (≈ 0.28 µM)	–	–	–	–	–
N#Cc1ccc(Oc2ccc(CCNc3ncnc4c(F)cccc34)cc2)nc1 [reference compound]	< 3.1 µg/mL	–	–	–	–	–
Oc1ccc(CCNc2ncnc3c(F)ccc(F)c23)cc1Cl [Compound 87]	–	50 to 79%	0 to 49%	0 to 49%	0 to 49%	–
COc1cc(CCNc2ncnc3c(F)ccc(F)c23)ccc1Oc1cc(C(F)(F)F)ncn1 [Compound 112]	–	80 to 100%	80 to 100%	80 to 100%	–	80 to 100%
COc1cc(CCNc2ncnc3c(F)ccc(F)c23)ccc1O [Compound 14]	–	50 to 79%	0 to 49%	0 to 49%	–	0 to 49%
CC(F)(F)c1cc[n+]([O-])c(Oc2ccc(CCNc3ncnc4c(F)ccc(F)c34)cc2)c1 [Compound 10]	–	80 to 100%	80 to 100%	50 to 79%	80 to 100%	–
Fc1cc(CCNc2ncnc3c(F)ccc(F)c23)ccc1Oc1ncc(C(F)(F)F)cc1F [Compound 131]	–	80 to 100%	80 to 100%	80 to 100%	80 to 100%	–
Cc1cc(CCNc2ncnc3c(F)ccc(F)c23)ccc1Oc1nc(F)c(F)c(N)c1F [Compound 99]	–	80 to 100%	80 to 100%	80 to 100%	0 to 49%	–
Fc1cnc(C(F)(F)F)c(F)c1Oc1ccc(CCNc2ncnc3c(F)ccc(F)c23)cc1 [Compound 48]	–	80 to 100%	80 to 100%	80 to 100%	80 to 100%	–
Nc1c(F)c(F)nc(Oc2ccc(CCNc3ncnc4c(F)ccc(F)c34)cc2)c1F [Compound 97]	–	80 to 100%	80 to 100%	80 to 100%	50 to 79%	–
COc1cc(CCNc2ncnc3c(F)ccc(F)c23)ccc1Oc1c(F)cnc(C(F)(F)F)c1F [Compound 50]	–	80 to 100%	80 to 100%	80 to 100%	80 to 100%	–
COc1cc(CCNc2ncnc3c(F)ccc(F)c23)ccc1Oc1ccc(C(F)(F)F)cn1 [Compound 52]	–	80 to 100%	80 to 100%	80 to 100%	80 to 100%	–
Cc1cc(Oc2cc(C(F)(F)F)ccn2)c(C)cc1CCNc1ncnc2c(F)ccc(F)c12 [Compound 19]	–	80 to 100%	80 to 100%	80 to 100%	80 to 100%	–
[O-][n+]1ccc(C(F)(F)F)cc1Oc1ccc(CCNc2ncnc3c(F)cc(F)c(F)c23)cc1 [Compound 75]	–	80 to 100%	80 to 100%	80 to 100%	80 to 100%	–
COc1cc(CCNc2ncnc3c(F)cc(F)c(F)c23)ccc1Oc1cc(C(F)(F)F)ccn1 [Compound 34]	–	80 to 100%	80 to 100%	80 to 100%	80 to 100%	–
Oc1ccc2c(c1)CC(Nc1ncnc3c(F)ccc(F)c13)C2 (centres unmarked) [Compound 106]	–	50 to 79%	50 to 79%	50 to 79%	0 to 49%	–
COc1cc(CCNc2ncnc3c(F)ccc(F)c23)ccc1Oc1c(Cl)cnc(C(F)(F)F)c1Cl [Compound 69]	–	80 to 100%	80 to 100%	80 to 100%	80 to 100%	–
Cc1c(O)ccc(CCNc2ncnc3c(F)ccc(F)c23)c1C [Compound 23]	–	80 to 100%	50 to 79%	50 to 79%	0 to 49%	–
Cc1cc(CCNc2ncnc3c(F)ccc(F)c23)ccc1O [Compound 24]	–	0 to 49%	0 to 49%	0 to 49%	0 to 49%	–

SMILES	LC90 [1]	pest or weed control at 200 ppm [2]	pest or weed control at 200 ppm [3]	pest or weed control at 200 ppm [4]	pest or weed control at 200 ppm [5]	pest or weed control at 25 ppm [5]
COc1cc(CCNc2ncnc3c(F)ccc(F)c23)ccc1Oc1nc(F)c(F)c(N)c1F [Compound 98]	–	80 to 100%	80 to 100%	80 to 100%	0 to 49%	–
Fc1ccc(F)c2c(NCCc3ccc(Oc4ccnc(C(F)(F)F)n4)cc3)ncnc12 [Compound 114]	–	80 to 100%	80 to 100%	80 to 100%	–	50 to 79%
Fc1ccc(F)c2c(NC3Cc4ccc(Oc5cc(C(F)(F)F)ccn5)cc4C3)ncnc12 (centres unmarked) [Compound 110]	–	80 to 100%	80 to 100%	80 to 100%	80 to 100%	–
Fc1ccc(F)c2c(NCCc3ccc(Oc4cc(C(F)(F)F)ccn4)c(Cl)c3)ncnc12 [Compound 90]	–	80 to 100%	80 to 100%	80 to 100%	80 to 100%	–
Fc1cc(CCNc2ncnc3c(F)cc(F)c(F)c23)ccc1Oc1cc(C(F)(F)F)ccn1 [Compound 67]	–	80 to 100%	80 to 100%	80 to 100%	80 to 100%	–
Cc1cc(CCNc2ncnc3c(F)cc(F)c(F)c23)ccc1O [Compound 70]	–	0 to 49%	50 to 79%	50 to 79%	50 to 79%	–
[O-][n+]1ccc(C(F)(F)F)cc1Oc1ccc(CCNc2ncnc3c(F)ccc(F)c23)cc1 [Compound 54]	–	80 to 100%	80 to 100%	80 to 100%	80 to 100%	–
COc1cc(CCNc2ncnc3c(F)ccc(F)c23)ccc1Oc1ncc(F)c(C(F)(F)F)c1F [Compound 53]	–	80 to 100%	80 to 100%	80 to 100%	80 to 100%	–
Fc1ccc(F)c2c(NCCOc3ccc(Oc4cc(C(F)(F)F)ccn4)cc3)ncnc12 [Compound 8]	–	80 to 100%	80 to 100%	80 to 100%	50 to 79%	–
Cc1cc(C(F)(F)F)cc(Oc2ccc(CCNc3ncnc4c(F)ccc(F)c34)cc2)n1 [Compound 7]	–	80 to 100%	80 to 100%	80 to 100%	80 to 100%	–
COc1cc(C(F)(F)F)cc(Oc2ccc(CCNc3ncnc4c(F)ccc(F)c34)cc2)n1 [Compound 9]	–	80 to 100%	80 to 100%	80 to 100%	50 to 79%	–
Fc1cc(Oc2ncc(C(F)(F)F)cc2F)ccc1CCNc1ncnc2c(F)ccc(F)c12 [Compound 122]	–	80 to 100%	80 to 100%	50 to 79%	–	80 to 100%
COc1ccc(CCNc2ncnc3c(F)ccc(F)c23)c(F)c1 [Compound 72]	–	80 to 100%	80 to 100%	80 to 100%	–	0 to 49%
COc1ccc(CCNc2ncnc3c(F)ccc(F)c23)cc1Br [Compound 32]	–	80 to 100%	80 to 100%	50 to 79%	0 to 49%	–
COc1cc(CCNc2ncnc3c(F)ccc(F)c23)ccc1Oc1cc(C(C)(F)F)ccn1 [Compound 16]	–	80 to 100%	80 to 100%	80 to 100%	80 to 100%	–
[O-][n+]1ccc(Oc2ccc(CCNc3ncnc4c(F)ccc(F)c34)cc2)c(C(F)(F)F)c1 [Compound 84]	–	80 to 100%	80 to 100%	80 to 100%	80 to 100%	–
Fc1cccc2c(NCCc3ccc(Oc4cc(C(F)(F)F)ccn4)cc3)ncnc12 [drawing 199, reference compound]	3.1 to 12.5 µg/mL (≈ 7.24 to 29.2 µM)	–	–	–	–	–
Cc1cc(CCNc2ncnc3c(F)ccc(F)c23)ccc1Oc1cc(C(F)(F)F)ncn1 [Compound 117]	–	80 to 100%	80 to 100%	80 to 100%	–	80 to 100%
CCCOc1cc(CCNc2ncnc3c(F)ccc(F)c23)ccc1Oc1cc(C(F)(F)F)ccn1 [Compound 57]	–	80 to 100%	80 to 100%	80 to 100%	80 to 100%	–
